Molecular target: T1, CLas GMPS (guanosine 5′-monophosphate synthetase)
T1 construct: gene guaA
Format: biochemical, Candidatus Liberibacter asiaticus

SMILES | Ki [µM]
Nc1nc(=O)c2nc(CNc3ccc(C(=O)N[C@@H](CCC(=O)O)C(=O)O)cc3)cnc2[nH]1 [Compound5481, folic acid] | 52
CCN(CCCOc1ccc2c(Nc3cc(CC(=O)Nc4cccc(F)c4)n[nH]3)ncnc2c1)CCOP(=O)(O)O [Compound1334, AZD1152] | 4.05

Reference: PMC8301025 (Biology, 2021)
